Results taken from ChEMBL document CHEMBL5465560, “Selectivity Literature for EUbOPEN Chemogenomic Library” (2024).

Tests used:
[1] = molecular target: T1, Histone-lysine N-methyltransferase SUV39H1 (Homo sapiens) (UniProt O43463); experiment: Selectivity interaction (Methyltransferase screen (Scintillation proximity assays)) EUB0000255b SUV39H1
T1 sequence (whole entry): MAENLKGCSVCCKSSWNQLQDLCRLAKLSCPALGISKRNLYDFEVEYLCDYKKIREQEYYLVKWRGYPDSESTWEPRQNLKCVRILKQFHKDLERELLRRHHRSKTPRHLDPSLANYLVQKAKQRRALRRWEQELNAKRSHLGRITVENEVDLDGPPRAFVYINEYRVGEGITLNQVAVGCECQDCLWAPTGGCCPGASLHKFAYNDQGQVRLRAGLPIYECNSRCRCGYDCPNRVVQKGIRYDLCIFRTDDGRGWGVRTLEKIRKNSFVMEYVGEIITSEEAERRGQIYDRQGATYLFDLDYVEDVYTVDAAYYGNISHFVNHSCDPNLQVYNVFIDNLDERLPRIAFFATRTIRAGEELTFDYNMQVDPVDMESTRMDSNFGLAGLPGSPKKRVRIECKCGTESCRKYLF

[2] = molecular target: Sodium-dependent noradrenaline transporter (Homo sapiens, UniProt P23975); experiment: Selectivity interaction (Safety Panel 44tm (Eurofins)) EUB0000162b SLC6A2; settings: at 10 µM
Sequence of Sodium-dependent noradrenaline transporter (P23975 whole entry): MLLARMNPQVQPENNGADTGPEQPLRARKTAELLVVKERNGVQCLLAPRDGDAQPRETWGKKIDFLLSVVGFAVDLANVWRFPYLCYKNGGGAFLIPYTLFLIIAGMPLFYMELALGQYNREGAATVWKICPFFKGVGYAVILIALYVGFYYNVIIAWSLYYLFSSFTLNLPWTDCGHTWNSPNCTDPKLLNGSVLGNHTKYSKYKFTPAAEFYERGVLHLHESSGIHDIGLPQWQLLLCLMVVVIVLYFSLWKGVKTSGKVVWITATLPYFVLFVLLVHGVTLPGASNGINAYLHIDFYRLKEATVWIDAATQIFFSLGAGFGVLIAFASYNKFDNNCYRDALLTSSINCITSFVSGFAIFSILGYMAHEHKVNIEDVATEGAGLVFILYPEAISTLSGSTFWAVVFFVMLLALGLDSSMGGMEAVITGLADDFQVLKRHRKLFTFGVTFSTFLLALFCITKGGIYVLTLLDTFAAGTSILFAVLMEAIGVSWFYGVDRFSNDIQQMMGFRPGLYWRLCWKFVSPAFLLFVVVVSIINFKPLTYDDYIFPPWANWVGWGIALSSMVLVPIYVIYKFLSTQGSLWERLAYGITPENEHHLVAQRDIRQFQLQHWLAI

[3] = molecular target: Calcium/calmodulin-dependent protein kinase type 1 (Homo sapiens) (UniProt Q14012); experiment: Selectivity interaction (KinomeScan (DiscoverX)) EUB0000655a CAMK1; settings: at 10 µM
Sequence of Calcium/calmodulin-dependent protein kinase type 1 (Homo sapiens) (Q14012 whole entry, looked up): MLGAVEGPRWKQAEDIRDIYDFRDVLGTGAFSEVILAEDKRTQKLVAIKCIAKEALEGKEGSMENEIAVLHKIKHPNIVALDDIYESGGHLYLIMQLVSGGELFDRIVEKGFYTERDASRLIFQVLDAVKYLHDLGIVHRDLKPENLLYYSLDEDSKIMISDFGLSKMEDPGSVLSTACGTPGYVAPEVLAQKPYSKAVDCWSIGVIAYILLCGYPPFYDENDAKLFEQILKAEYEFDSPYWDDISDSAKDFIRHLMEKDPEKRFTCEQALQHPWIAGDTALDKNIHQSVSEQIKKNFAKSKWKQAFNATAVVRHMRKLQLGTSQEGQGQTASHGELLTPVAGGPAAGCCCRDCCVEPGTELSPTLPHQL

[4] = molecular target: T2, Phosphatidylinositol 5-phosphate 4-kinase type-2 gamma (Homo sapiens) (UniProt Q8TBX8); experiment: Selectivity interaction (KinomeScan (DiscoverX)) EUB0000655a PIP4K2C; settings: at 10 µM
T2 sequence (whole entry): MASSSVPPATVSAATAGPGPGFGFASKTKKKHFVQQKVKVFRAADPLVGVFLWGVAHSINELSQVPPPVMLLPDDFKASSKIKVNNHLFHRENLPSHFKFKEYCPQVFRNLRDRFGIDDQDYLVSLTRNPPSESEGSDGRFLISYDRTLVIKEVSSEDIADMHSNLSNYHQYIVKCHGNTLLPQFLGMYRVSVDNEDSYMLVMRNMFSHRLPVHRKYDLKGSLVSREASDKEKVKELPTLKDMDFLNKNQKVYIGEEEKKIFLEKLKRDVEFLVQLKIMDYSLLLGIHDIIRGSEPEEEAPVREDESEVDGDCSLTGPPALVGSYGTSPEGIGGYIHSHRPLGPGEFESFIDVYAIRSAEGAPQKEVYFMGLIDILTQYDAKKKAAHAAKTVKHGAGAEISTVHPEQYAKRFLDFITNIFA

[5] = molecular target: T3, Ephrin type-B receptor 1 (Homo sapiens) (UniProt P54762); settings: at 10 µM
T3 sequence (whole entry): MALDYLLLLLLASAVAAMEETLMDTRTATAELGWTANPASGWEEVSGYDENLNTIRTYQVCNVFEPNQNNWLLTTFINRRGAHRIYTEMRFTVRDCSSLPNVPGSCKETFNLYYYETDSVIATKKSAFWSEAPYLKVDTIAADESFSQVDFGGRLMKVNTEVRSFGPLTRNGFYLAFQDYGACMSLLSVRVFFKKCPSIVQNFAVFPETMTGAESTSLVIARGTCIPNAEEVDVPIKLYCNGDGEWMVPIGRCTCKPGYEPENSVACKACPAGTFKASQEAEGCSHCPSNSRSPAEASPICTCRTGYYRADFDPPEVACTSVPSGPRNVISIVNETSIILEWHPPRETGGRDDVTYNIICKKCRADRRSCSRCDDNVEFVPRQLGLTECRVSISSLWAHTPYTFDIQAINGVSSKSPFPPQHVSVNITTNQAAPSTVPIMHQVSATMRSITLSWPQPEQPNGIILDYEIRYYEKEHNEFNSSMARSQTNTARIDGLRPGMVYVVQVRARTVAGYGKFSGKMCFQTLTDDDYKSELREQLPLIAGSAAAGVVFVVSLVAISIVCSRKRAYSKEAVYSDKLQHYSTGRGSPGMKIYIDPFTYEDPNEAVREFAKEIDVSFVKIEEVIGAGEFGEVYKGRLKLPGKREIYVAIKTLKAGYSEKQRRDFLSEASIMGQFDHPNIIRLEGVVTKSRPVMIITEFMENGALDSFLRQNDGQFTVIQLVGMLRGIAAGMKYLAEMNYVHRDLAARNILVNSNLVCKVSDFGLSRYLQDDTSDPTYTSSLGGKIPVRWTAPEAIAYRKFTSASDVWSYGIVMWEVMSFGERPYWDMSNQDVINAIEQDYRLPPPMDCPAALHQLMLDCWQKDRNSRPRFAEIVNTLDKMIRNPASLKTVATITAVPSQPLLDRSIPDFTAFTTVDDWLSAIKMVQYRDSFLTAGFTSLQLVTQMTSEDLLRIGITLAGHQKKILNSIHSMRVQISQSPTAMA

[6] = molecular target: T4, Serine/threonine-protein kinase Nek9 (Homo sapiens) (UniProt Q8TD19); experiment: Selectivity interaction (Kinase panel (Z-LYTE Assay)) EUB0001632a NEK9; settings: at 10 µM
T4 sequence (whole entry): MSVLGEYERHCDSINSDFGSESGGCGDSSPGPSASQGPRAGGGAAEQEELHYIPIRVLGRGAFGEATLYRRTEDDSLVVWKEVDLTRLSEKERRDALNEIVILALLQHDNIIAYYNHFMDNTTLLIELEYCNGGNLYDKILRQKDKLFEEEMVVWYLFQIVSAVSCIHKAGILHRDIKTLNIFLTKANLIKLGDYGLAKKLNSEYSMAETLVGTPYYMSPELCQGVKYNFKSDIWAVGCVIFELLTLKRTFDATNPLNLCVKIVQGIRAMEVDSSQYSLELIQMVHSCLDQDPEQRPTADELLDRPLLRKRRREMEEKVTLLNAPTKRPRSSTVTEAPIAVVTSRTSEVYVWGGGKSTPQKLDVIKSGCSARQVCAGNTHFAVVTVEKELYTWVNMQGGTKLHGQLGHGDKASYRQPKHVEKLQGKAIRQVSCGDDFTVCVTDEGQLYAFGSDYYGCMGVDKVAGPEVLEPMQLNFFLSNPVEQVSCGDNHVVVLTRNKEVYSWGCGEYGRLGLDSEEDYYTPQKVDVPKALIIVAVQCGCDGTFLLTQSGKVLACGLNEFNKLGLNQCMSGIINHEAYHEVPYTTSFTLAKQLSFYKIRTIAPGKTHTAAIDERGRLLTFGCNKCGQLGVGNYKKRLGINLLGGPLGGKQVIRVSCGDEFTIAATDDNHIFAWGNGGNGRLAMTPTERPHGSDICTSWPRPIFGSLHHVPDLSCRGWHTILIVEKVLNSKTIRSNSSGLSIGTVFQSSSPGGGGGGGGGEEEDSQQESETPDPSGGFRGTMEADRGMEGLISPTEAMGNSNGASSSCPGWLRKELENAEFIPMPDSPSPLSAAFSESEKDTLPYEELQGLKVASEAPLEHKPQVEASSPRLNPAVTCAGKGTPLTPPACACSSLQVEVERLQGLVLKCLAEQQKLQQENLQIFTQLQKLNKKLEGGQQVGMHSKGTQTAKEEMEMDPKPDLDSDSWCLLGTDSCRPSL

Question: With COCCN1CCC(c2cc(CN(C)C(=O)c3cccc(Oc4ccccc4)c3)ccn2)CC1 as the compound, how does the % activity ([1]; at 1 µM) read?
Answer: Its % activity is greater than 95%.

Question: What about the % activity ([1]; at 10 µM) of the same compound?
Answer: Its % activity is greater than 90%.

Question: Which % of control [2] does the source give for CN(C)C(=O)Cn1cc(-c2ccc(-c3cncc4ccccc34)cc2)cn1 here?
Answer: Its % of control is 89%.

Question: With CN(C)CCOc1ccc(-c2nc(-c3ccncc3)c(-c3ccc4c(c3)CC/C4=N\O)[nH]2)cc1 as the compound, how does the % of control [3] read?
Answer: The % of control was 93%.

Question: And the % of control [4]?
Answer: The % of control was 100%.

Question: With Cc1cc([C@@H](C)Nc2ccccc2C(=O)O)c2nc(N3CCOCC3)cc(=O)n2c1 [AZD-6482] as the compound, how does the % of control [5] read?
Answer: Its % of control is 98%.

Question: Which % of control [6] does the source give for Cn1cc(-n2cnc3c(NCc4nc5cc(Cl)c(Cl)cc5[nH]4)nc(N4CCOCC4)nc32)cn1 here?
Answer: Its % of control is -0.159%.
